Test results reported in BigSolDB 2.1.

c1ccc(-c2nnn[nH]2)cc1
Details | solubility (mole fraction)
in 1,4-dioxane, 283.15 K | 0.00929
in 1,4-dioxane, 285.65 K | 0.00982
in 1,4-dioxane, 288.15 K | 0.0104
in 1,4-dioxane, 290.65 K | 0.0109
in 1,4-dioxane, 293.15 K | 0.0114
in 1,4-dioxane, 295.65 K | 0.012
in 1,4-dioxane, 298.15 K | 0.0125
in 1,4-dioxane, 300.65 K | 0.0131
in 1,4-dioxane, 303.15 K | 0.0138
in 1,4-dioxane, 305.65 K | 0.0145
in 1,4-dioxane, 308.15 K | 0.0151
in 1,4-dioxane, 310.65 K | 0.0158
in 1,4-dioxane, 313.15 K | 0.0165
in 1,4-dioxane, 315.65 K | 0.0172
in 1,4-dioxane, 318.15 K | 0.018
in 2-butanone, 283.15 K | 0.0156
in 2-butanone, 285.65 K | 0.0163
in 2-butanone, 288.15 K | 0.017
in 2-butanone, 290.65 K | 0.0178
in 2-butanone, 293.15 K | 0.0185
in 2-butanone, 295.65 K | 0.0193
in 2-butanone, 298.15 K | 0.0202
in 2-butanone, 300.65 K | 0.0211
in 2-butanone, 303.15 K | 0.022
in 2-butanone, 305.65 K | 0.023
in 2-butanone, 308.15 K | 0.0239
in 2-butanone, 310.65 K | 0.0249
in 2-butanone, 313.15 K | 0.026
in 2-butanone, 315.65 K | 0.0271
in 2-butanone, 318.15 K | 0.0281
in DMF, 283.15 K | 0.208
in DMF, 285.65 K | 0.22
in DMF, 288.15 K | 0.231
in DMF, 290.65 K | 0.244
in DMF, 293.15 K | 0.257
in DMF, 295.65 K | 0.269
in DMF, 298.15 K | 0.282
in DMF, 300.65 K | 0.296
in DMF, 303.15 K | 0.308
in DMF, 305.65 K | 0.322
in DMF, 308.15 K | 0.336
in DMF, 310.65 K | 0.35
in DMF, 313.15 K | 0.365
in DMF, 315.65 K | 0.379
in DMF, 318.15 K | 0.393
in DMSO, 293.15 K | 0.278
in DMSO, 295.65 K | 0.291
in DMSO, 298.15 K | 0.304
in DMSO, 300.65 K | 0.317
in DMSO, 303.15 K | 0.33
in DMSO, 305.65 K | 0.343
in DMSO, 308.15 K | 0.356
in DMSO, 310.65 K | 0.369
in DMSO, 313.15 K | 0.384
in DMSO, 315.65 K | 0.398
in DMSO, 318.15 K | 0.412
in acetone, 283.15 K | 0.0169
in acetone, 285.65 K | 0.0176
in acetone, 288.15 K | 0.0184
in acetone, 290.65 K | 0.0192
in acetone, 293.15 K | 0.02
in acetone, 295.65 K | 0.0208
in acetone, 298.15 K | 0.0217
in acetone, 300.65 K | 0.0226
in acetone, 303.15 K | 0.0236
in acetone, 305.65 K | 0.0245
in acetone, 308.15 K | 0.0256
in acetone, 310.65 K | 0.0266
in acetone, 313.15 K | 0.0278
in acetone, 315.65 K | 0.029
in acetone, 318.15 K | 0.0302
in acetonitrile, 283.15 K | 0.00181
in acetonitrile, 285.65 K | 0.00197
in acetonitrile, 288.15 K | 0.00216
in acetonitrile, 290.65 K | 0.00236
in acetonitrile, 293.15 K | 0.00253
in acetonitrile, 295.65 K | 0.0028
in acetonitrile, 298.15 K | 0.00307
in acetonitrile, 300.65 K | 0.00331
in acetonitrile, 303.15 K | 0.00359
in acetonitrile, 305.65 K | 0.00389
in acetonitrile, 308.15 K | 0.00421
in acetonitrile, 310.65 K | 0.00449
in acetonitrile, 313.15 K | 0.0049
in acetonitrile, 315.65 K | 0.0052
in acetonitrile, 318.15 K | 0.00555
in cyclohexane, 283.15 K | 3.56e-06
in cyclohexane, 285.65 K | 3.93e-06
in cyclohexane, 288.15 K | 4.34e-06
in cyclohexane, 290.65 K | 4.54e-06
in cyclohexane, 293.15 K | 5.04e-06
in cyclohexane, 295.65 K | 5.38e-06
in cyclohexane, 298.15 K | 5.97e-06
in cyclohexane, 300.65 K | 6.41e-06
in cyclohexane, 303.15 K | 6.91e-06
in cyclohexane, 305.65 K | 7.5e-06
in cyclohexane, 308.15 K | 8.16e-06
in cyclohexane, 310.65 K | 8.97e-06
in cyclohexane, 313.15 K | 9.6e-06
in cyclohexane, 315.65 K | 1.04e-05
in cyclohexane, 318.15 K | 1.11e-05
in ethanol, 283.15 K | 0.0148
in ethanol, 285.65 K | 0.0156
in ethanol, 288.15 K | 0.0164
in ethanol, 290.65 K | 0.0172
in ethanol, 293.15 K | 0.0181
in ethanol, 295.65 K | 0.019
in ethanol, 298.15 K | 0.02
in ethanol, 300.65 K | 0.0209
in ethanol, 303.15 K | 0.022
in ethanol, 305.65 K | 0.023
in ethanol, 308.15 K | 0.0241
in ethanol, 310.65 K | 0.0253
in ethanol, 313.15 K | 0.0264
in ethanol, 315.65 K | 0.0277
in ethanol, 318.15 K | 0.0289
in ethyl acetate, 283.15 K | 0.00628
in ethyl acetate, 285.65 K | 0.00648
in ethyl acetate, 288.15 K | 0.00665
in ethyl acetate, 290.65 K | 0.00691
in ethyl acetate, 293.15 K | 0.00717
in ethyl acetate, 295.65 K | 0.00746
in ethyl acetate, 298.15 K | 0.00773
in ethyl acetate, 300.65 K | 0.00804
in ethyl acetate, 303.15 K | 0.00838
in ethyl acetate, 305.65 K | 0.00878
in ethyl acetate, 308.15 K | 0.00918
in ethyl acetate, 310.65 K | 0.00961
in ethyl acetate, 313.15 K | 0.0101
in ethyl acetate, 315.65 K | 0.0106
in ethyl acetate, 318.15 K | 0.0111
in isopropanol, 283.15 K | 0.0141
in isopropanol, 285.65 K | 0.0147
in isopropanol, 288.15 K | 0.0155
in isopropanol, 290.65 K | 0.0163
in isopropanol, 293.15 K | 0.0171
in isopropanol, 295.65 K | 0.0179
in isopropanol, 298.15 K | 0.0189
in isopropanol, 300.65 K | 0.0198
in isopropanol, 303.15 K | 0.0208
in isopropanol, 305.65 K | 0.0217
in isopropanol, 308.15 K | 0.0227
in isopropanol, 310.65 K | 0.0237
in isopropanol, 313.15 K | 0.0248
in isopropanol, 315.65 K | 0.0257
in isopropanol, 318.15 K | 0.0268
in methanol, 283.15 K | 0.0156
in methanol, 285.65 K | 0.0164
in methanol, 288.15 K | 0.0172
in methanol, 290.65 K | 0.018
in methanol, 293.15 K | 0.0189
in methanol, 295.65 K | 0.0199
in methanol, 298.15 K | 0.0209
in methanol, 300.65 K | 0.0219
in methanol, 303.15 K | 0.023
in methanol, 305.65 K | 0.024
in methanol, 308.15 K | 0.0252
in methanol, 310.65 K | 0.0264
in methanol, 313.15 K | 0.0276
in methanol, 315.65 K | 0.0289
in methanol, 318.15 K | 0.0302
in n-propanol, 283.15 K | 0.0136
in n-propanol, 285.65 K | 0.0142
in n-propanol, 288.15 K | 0.0148
in n-propanol, 290.65 K | 0.0154
in n-propanol, 293.15 K | 0.016
in n-propanol, 295.65 K | 0.0167
in n-propanol, 298.15 K | 0.0174
in n-propanol, 300.65 K | 0.0181
in n-propanol, 303.15 K | 0.0188
in n-propanol, 305.65 K | 0.0196
in n-propanol, 308.15 K | 0.0204
in n-propanol, 310.65 K | 0.0213
in n-propanol, 313.15 K | 0.0221
in n-propanol, 315.65 K | 0.023
in n-propanol, 318.15 K | 0.0239
in toluene, 283.15 K | 2.5e-05
in toluene, 285.65 K | 2.85e-05
in toluene, 288.15 K | 3.35e-05
in toluene, 290.65 K | 3.84e-05
in toluene, 293.15 K | 4.45e-05
in toluene, 295.65 K | 5.09e-05
in toluene, 298.15 K | 5.84e-05
in toluene, 300.65 K | 6.64e-05
in toluene, 303.15 K | 7.62e-05
in toluene, 305.65 K | 8.68e-05
in toluene, 308.15 K | 9.91e-05
in toluene, 310.65 K | 0.000113
in toluene, 313.15 K | 0.000129
in toluene, 315.65 K | 0.000146
in toluene, 318.15 K | 0.000165
